Laboratory results as given in patent US20240409585A1, “MACROCYCLIC IMMUNOMODULATORS” (priority 2021, published 2024).
Bridge positions count the residues as written; N and C are the ends. Square brackets hold non-standard residues; d marks the D form. Peptide text beside a SMILES is read from it. * marks the point of attachment. ξ: configuration not given here. Phe(4-COOH) = N[C@@H](Cc1ccc(C(=O)O)cc1)C(=O)O; Bip = N[C@@H](Cc1ccc(-c2ccccc2)cc1)C(=O)O; Phe(3-Me) = Cc1cccc(C[C@H](N)C(=O)O)c1; 3Pal = N[C@@H](Cc1cccnc1)C(=O)O; 4Pal = N[C@@H](Cc1ccncc1)C(=O)O; Carboxymethyl = O=C(O)C*; NMeA = CN[C@@H](C)C(=O)O; dDap = NC[C@@H](N)C(=O)O; Dab = NCC[C@H](N)C(=O)O; ξC = NC(CS)C(=O)O; Acm = CC(=O)NC*

target: T1, PE-labeled human PD-L1-Ig binding to Jurkat cell line over-expressing human PD-1 (Jurkat-PD-1) (Homo sapiens, UniProt Q15116); assay: Jurkat-PD-1 Cell Binding High-Content Screening Assay (CBA): Method 1; details: Jurkat HPDL1 PD1 IC50 (uM) (Method 1), Jurkat-hPD-1 cells, PE-labeled PD-L1-Ig 20 nM final
T1 construct: expressed in transfected cells; host or cells: Jurkat
T1 sequence (Q15116 25-288): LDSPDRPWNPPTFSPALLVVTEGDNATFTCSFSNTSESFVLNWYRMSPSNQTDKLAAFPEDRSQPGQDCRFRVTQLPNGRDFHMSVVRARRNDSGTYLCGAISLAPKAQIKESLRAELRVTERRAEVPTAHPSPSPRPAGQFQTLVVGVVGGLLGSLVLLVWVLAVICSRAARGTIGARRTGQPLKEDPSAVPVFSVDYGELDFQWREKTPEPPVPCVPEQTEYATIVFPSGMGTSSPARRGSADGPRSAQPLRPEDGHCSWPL

Structure (SMILES) | IC50
CC(C)C[C@@H]1NC(=O)[C@H](CCN)NC(=O)[C@@H](CC(C)C)NC(=O)[C@H](C)N(C)C(=O)[C@H](CCCNC(=N)N)NC(=O)[C@H](Cc2ccc(-c3ccccc3)cc2)NC(=O)[C@H](C(C)C)NC(=O)[C@H](Cc2c[nH]c3ccccc23)NC(=O)[C@H](CC(=O)O)NC(=O)[C@H](Cc2ccc(O)cc2)NC(=O)[C@H](Cc2cccnc2)NC(=O)CSC[C@@H](C(=O)N[C@@H](C)C(N)=O)NC(=O)[C@H](CO)NC(=O)[C@H](C(C)C)NC1=O [Compound 1034] ({CH2CO}-[3Pal]YDWV[Bip]R[NMeA][dL][Dab]LVSCA-NH2; thioether N-14) | 0.05 µM

same assay, conditions: Jurkat-hPD-1 cells, PE-labeled PD-L1-Ig 20 nM final; read-out: Jurkat HPDL1 PD1 IC50 (uM) (Method 1)

Structure (SMILES) | IC50
CC(=O)NCSC[C@@H]1NC(=O)[C@H](Cc2cccc(C)c2)NC(=O)[C@H](CC(=O)O)NC(=O)[C@H](Cc2ccncc2)NC(=O)[C@H](Cc2ccc(OCC(=O)O)cc2)NC(=O)CSCC(C(=O)NCC(N)=O)NC(=O)[C@H](CO)NC(=O)[C@H](C(C)C)NC(=O)[C@H](CC(C)C)NC(=O)[C@H](CC(N)=O)NC(=O)[C@@H](CC(C)C)NC(=O)[C@H](C)N(C)C(=O)[C@H](CSCNC(C)=O)NC(=O)[C@H](Cc2ccc(-c3ccccc3)cc2)NC1=O (stereo partly drawn) [Compound 1888] ({CH2CO}-Y(Carboxymethyl)[4Pal]D[Phe(3-Me)]C(Acm)[Bip]C(Acm)[NMeA][dL]NLVS[ξC]G-NH2; thioether N-14) | 0.2 µM
CC(C)C[C@@H]1NC(=O)[C@H](Cc2c[nH]c3ccccc23)NC(=O)[C@H](CC(=O)O)NC(=O)[C@H](Cc2ccc(C(=O)O)cc2)NC(=O)[C@H](Cc2ccc(OCC(=O)O)cc2)NC(=O)CSC[C@@H](C(N)=O)NC(=O)[C@H](CCCCN)NC(=O)[C@H](C(C)C)NC(=O)[C@H](CC(C)C)NC(=O)[C@H](CC(N)=O)NC(=O)[C@@H](CC(C)C)NC(=O)[C@H](C)N(C)C(=O)[C@H](C(C)C)NC(=O)[C@H](Cc2ccc(-c3ccccc3)cc2)NC1=O [Compound 2258] ({CH2CO}-Y(Carboxymethyl)[Phe(4-COOH)]DWL[Bip]V[NMeA][dL]NLVKC-NH2; thioether N-14) | 0.16 µM
CC(C)C[C@@H]1NC(=O)[C@H](Cc2c[nH]c3ccccc23)NC(=O)[C@H](CC(=O)O)NC(=O)[C@H](Cc2ccc(O)cc2)NC(=O)[C@H](Cc2ccccc2)NC(=O)CSC[C@@H](C(=O)N[C@@H](C)C(N)=O)NC(=O)[C@H](CO)NC(=O)[C@H](C(C)C)NC(=O)[C@H](CC(C)C)NC(=O)[C@H](CC(N)=O)NC(=O)[C@@H](CN)NC(=O)[C@H](C)N(C)C(=O)[C@H](C(C)C)NC(=O)[C@H](Cc2ccc(-c3ccccc3)cc2)NC1=O [Compound 1787] ({CH2CO}-FYDWL[Bip]V[NMeA][dDap]NLVSCA-NH2; thioether N-14) | 0.1 µM
CC(C)C[C@@H]1NC(=O)[C@H](Cc2c[nH]c3ccccc23)NC(=O)[C@H](CC(=O)O)NC(=O)[C@H](Cc2ccc(C(=O)O)cc2)NC(=O)[C@H](Cc2ccc(OCC(=O)O)cc2)NC(=O)CSC[C@@H](C(=O)N[C@@H](C)C(N)=O)NC(=O)[C@H](CO)NC(=O)[C@H](C(C)C)NC(=O)[C@H](CC(C)C)NC(=O)[C@H](CC(N)=O)NC(=O)[C@@H](C)NC(=O)[C@H](C)N(C)C(=O)[C@H](C(C)C)NC(=O)[C@H](Cc2ccc(-c3ccccc3)cc2)NC1=O [Compound 1560] ({CH2CO}-Y(Carboxymethyl)[Phe(4-COOH)]DWL[Bip]V[NMeA][dA]NLVSCA-NH2; thioether N-14) | 0.02 µM
CC(C)C[C@@H]1NC(=O)[C@H](Cc2c[nH]c3ccccc23)NC(=O)[C@H](CC(=O)O)NC(=O)[C@H](Cc2ccc(O)cc2)NC(=O)[C@H](Cc2ccccc2)NC(=O)CSC[C@@H](C(=O)N[C@@H](C)C(N)=O)NC(=O)[C@H](CO)NC(=O)[C@H](C(C)C)NC(=O)[C@H](CC(C)C)NC(=O)[C@H](CCCCN)NC(=O)[C@@H](C)NC(=O)[C@H](C)N(C)C(=O)[C@H](C(C)C)NC(=O)[C@H](Cc2ccc(-c3ccccc3)cc2)NC1=O [Compound 1748] ({CH2CO}-FYDWL[Bip]V[NMeA][dA]KLVSCA-NH2; thioether N-14) | 0.02 µM
